# Biological target: T1, RORc ligand binding domain (Homo sapiens, UniProt P51449)
# T1 construct: host or cells: E. coli
# T1 sequence (P51449 269-508 limits assumed): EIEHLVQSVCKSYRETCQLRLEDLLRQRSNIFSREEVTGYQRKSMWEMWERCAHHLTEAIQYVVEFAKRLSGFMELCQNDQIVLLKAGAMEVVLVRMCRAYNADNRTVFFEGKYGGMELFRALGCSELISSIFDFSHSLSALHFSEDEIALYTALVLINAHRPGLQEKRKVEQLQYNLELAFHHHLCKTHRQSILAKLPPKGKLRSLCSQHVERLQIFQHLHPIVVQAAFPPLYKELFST
# Assay: In vitro RORc ligand binding assay (25-[3H]hydroxycholesterol displacement, filter binding)
# Details: 6 nM 25-[3H]hydroxycholesterol, 0.6 ug/mL RORc receptor, 3 h at 25° C.
# Experimental: Example 17: In Vitro RORc Ligand Binding Assay
# This assay was used to determine a compound's potency in inhibiting activity of RORc by determining, Kiapp, IC50, or percent inhibition values.
# On day of the assay, 100 uL of 0.05% CHAPS (in deionized H2O) was added to all wells of the GFB Unifilter plate and allowed soak for 1 h. A wash buffer of 50 mM HEPES (pH 7.4), 150 mM NaCl, and 5 mM MgCl2 was prepared to wash the filter plate. To prepare an assay buffer, BSA was added to the wash buffer to reach 0.01% and DTT was added to reach 1 mM.
# For IC50 mode, 10 mM compound stocks were serially diluted in DMSO with DMSO to give 20× required final concentration in DMSO (15 uL compound+30 uL DMSO). The 20× compound stocks were diluted in DMSO with Assay Buffer 4-fold to reach 5× the final test concentration in 25% DMSO (10 uL compound+30 uL Assay Buffer). Solutions were mixed by aspiration several times with a pipette set on 50 uL volume. For the assay, 10 uL of 5× compound stock solutions in 25% DMSO were added to the assay plate in duplicate.
# For two point screening, 10 mM stock compound solutions were diluted in DMSO to obtain 200 uM (20× the high test concentration) and then diluted 10-fold further to reach 20 uM (20× the low test concentration). The 20× stocks were diluted 4-fold with Assay Buffer (10 uL compound+30 uL Assay Buffer) to reach 5× the test concentrations (50 uM and 5 uM) and 10 uL were added to two assay plates for the duplicate wells. With each concentration tested on 2 plates, each set of 80 compounds used 4 assay plates (1 uM and 10 uM, with n=2).
# 25-hydroxycholesterol (1 uM) was used to determine the level of NSB signal is prepared in DMSO as for compounds above, then diluted in Assay Buffer to give a final concentration of 5 uM. For 25-hydroxycholesterol in 25% DMSO/75% Assay Buffer; 10 uL per well was used for NSB samples. Wells for Total Binding and No Receptor sample determination contained 10 uL of 25% DMSO/75% Assay Buffer per well.
# 25-[^3H]hydroxycholesterol was diluted in Assay Buffer to obtain 15 nM and vortex to mix. Add 20 uL to all wells to reach 6 nM final concentration in the assay.
# Stock receptor solution was diluted in assay buffer to obtain 1.5 ug/mL in Assay Buffer. 20 uL was added to all wells. For No Receptor samples, 20 uL Assay Buffer was substituted for receptor solution.
# Assay plates were 96-well polypropylene V-bottom plates. 10 uL of 5× compound in 25% DMSO/75% Assay Buffer was added to Test wells. 10 uL of 25% DMSO/75% Assay Buffer was added to Total Binding or No Receptor wells. 10 uL of 5 uM 25-hydroxycholesterol in 25% DMSO/75% Assay Buffer was added to NSB wells. 20 uL of 15 nM 25-[^3H]hydroxycholesterol prepared in Assay Buffer was added to all wells. 20 uL of 1.5 ug/mL RORc receptor was added to wells (or […] Assay Buffer to No R wells). Following addition to the wells, the plates were incubated 3 h at 25° C.
# Using a Packard Filtermate Harvester, the filter plate were washed 4 times following transfer of the incubated samples. Plates were dry-filtered completely (2 h at 50° C. or overnight at room temperature). 50 uL Microscint 0 was added to all wells and read on Topcount protocol Inverted.
# Final concentrations were as follows: 50 mM HEPES buffer (pH 7.4); 150 mM NaCl; 1 mM DTT; 5 mM MgCl2; 0.01% BSA; 5% DMSO; 0.6 ug/mL RORc receptor; 6 nM 25-[^3H]hydroxycholesterol. For NSB wells, 1 uM 25-hydroxycholesterol was also present.
row,IC50 [nM],Structure (SMILES)
1,1840,"CC(C)OC1CN(C(=O)[C@@]23CC[C@@H](c4cc(-c5c(F)cccc5F)nnc42)C3(C)C)C1 [Example 190, ((5R,8R)-3-(2,6-difluorophenyl)-9,9-dimethyl-5,6,7,8-tetrahydro-5,8-methanocinnolin-8-yl)(3-isopropoxyazetidin-1-yl)methanone]"
2,327,"CC1(C)[C@@H]2CC[C@@]1(C(=O)N1C[C@@H]3C[C@H]1CN3S(C)(=O)=O)c1nnc(-c3c(F)cccc3F)cc12 [Example 241, ((5S,8S)-3-(2,6-difluorophenyl)-9,9-dimethyl-5,6,7,8-tetrahydro-5,8-methanocinnolin-8-yl)((1S,4S)-5-(methylsulfonyl)-2,5-diazabicyclo[2.2.1]heptan-2-yl)methanone]"
3,129,"COCc1nc(C[C@@]23CC[C@@H](c4cc(-c5c(F)cccc5F)nnc42)C3(C)C)no1 [Example 62, (5R,8R)-3-(2,6-difluorophenyl)-8-{[5-(methoxymethyl)-1,2,4-oxadiazol-3-yl]methyl}-9,9-dimethyl-5,6,7,8-tetrahydro-5,8-methanocinnoline]"
4,43,"CC1(C)[C@H]2CC[C@]1(c1ccn[nH]1)c1nnc(-c3c(F)cccc3F)cc12 [Example 113, (5R,8S)-3-(2,6-difluorophenyl)-9,9-dimethyl-8-(1H-pyrazol-5-yl)-5,6,7,8-tetrahydro-5,8-methanocinnoline]"
5,1130,"CN(CCC#N)C(=O)[C@]12CC[C@H](c3cc(-c4c(F)cccc4F)nnc31)C2(C)C [Example 258, (5S,8S)-N-(2-cyanoethyl)-3-(2,6-difluorophenyl)-N,9,9-trimethyl-5,6,7,8-tetrahydro-5,8-methanocinnoline-8-carboxamide]"
6,301,"COC(=O)N(C)[C@@]12CC[C@@H](c3cc(-c4c(F)cccc4F)nnc31)C2(C)C [Example 274, methyl ((5R,8R)-3-(2,6-difluorophenyl)-9,9-dimethyl-5,6,7,8-tetrahydro-5,8-methanocinnolin-8-yl)(methyl)carbamate]"
7,1550,"CC(C)CNC(=O)[C@]12CC[C@H](c3cc(-c4c(F)cccc4F)nnc31)C2(C)C [Example 209, (5S,8S)-3-(2,6-difluorophenyl)-N-isobutyl-9,9-dimethyl-5,6,7,8-tetrahydro-5,8-methanocinnoline-8-carboxamide]"
8,2670,"CC1(C)[C@H]2CC[C@]1(C(=O)NCCO)c1nnc(-c3ccccc3F)cc12 [Example 176, (5R,8R)-3-(2-fluorophenyl)-N-(2-hydroxyethyl)-9,9-dimethyl-5,6,7,8-tetrahydro-5,8-methanocinnoline-8-carboxamide]"
9,1140,"CC1(C)[C@@H]2CC[C@@]1(C(=O)N1C3CCC1CC(O)C3)c1nnc(-c3c(F)cccc3F)cc12 (stereo partly drawn) [Example 261, ((5S,8S)-3-(2,6-difluorophenyl)-9,9-dimethyl-5,6,7,8-tetrahydro-5,8-methanocinnolin-8-yl)(3-hydroxy-8-azabicyclo[3.2.1]octan-8-yl)methanone]"
10,176,"COCC(=O)N(CCC#N)C[C@@]12CC[C@@H](c3cc(-c4c(F)cccc4F)nnc31)C2(C)C [Example 311, N-(2-cyanoethyl)-N-(((5R,8S)-3-(2,6-difluorophenyl)-9,9-dimethyl-5,6,7,8-tetrahydro-5,8-methanocinnolin-8-yl)methyl)-2-methoxyacetamide]"
11,136,"Cc1nc([C@@]23CC[C@@H](c4cc(-c5c(F)cccc5F)nnc42)C3(C)C)no1 [Example 80, (5R,8R)-3-(2,6-difluorophenyl)-9,9-dimethyl-8-(5-methyl-1,2,4-oxadiazol-3-yl)-5,6,7,8-tetrahydro-5,8-methanocinnoline]"
12,1220,"Cc1c(-c2ccccc2F)nnc2c1[C@H]1CC[C@]2(C)C1(C)C [Example 33, (5S,8R)-3-(2-fluorophenyl)-4,8,9,9-tetramethyl-5,6,7,8-tetrahydro-5,8-methanocinnoline]"
